The target in this test is T1, Mlp37p (periplasmic fragment of Mlp37) (Vibrio cholerae, UniProt A0A0H3AES3).
T1 construct: gene VC0395_0316
As to the kind of experiment: biochemical.

One may read the Kd as the concentration at which binding is half-saturated. The low end stands for tighter binding, the high end for weaker binding.

T1 sequence (A0A0H3AES3 58-303 limits assumed): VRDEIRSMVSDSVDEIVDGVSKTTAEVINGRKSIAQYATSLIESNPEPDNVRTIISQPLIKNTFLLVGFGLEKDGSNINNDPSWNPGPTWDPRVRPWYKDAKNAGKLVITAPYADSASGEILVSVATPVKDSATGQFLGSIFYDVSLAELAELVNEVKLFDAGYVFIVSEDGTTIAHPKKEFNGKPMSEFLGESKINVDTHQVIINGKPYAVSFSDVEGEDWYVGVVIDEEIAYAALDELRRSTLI

As to `C[C@H](N)C(=O)O` [L-alanine], the dissociation constant (Kd) was found to be 2.7 µM.

Consider `N[C@@H](CO)C(=O)O` [L-serine], for which the affinity, expressed as Kd, was 3.6 µM. The molecule `N=C(N)NCCC[C@H](N)C(=O)O` [L-arginine] displayed a Kd of 5.6 µM. To `NCCS(=O)(=O)O` [taurine, 2-aminoethanesulfonic acid] belongs 3.2 µM.

The record behind these values is paper PMC4754685 (Scientific Reports, 2016).
